# From patent US20250197424A1, “QUINOLINE COMPOUND AND USE THEREOF” (SHANGHAI PHARMACEUTICALS HOLDING CO., LTD., priority 2022, published 2025)
# Counter-ions that a name gives are not always drawn.
# Biological target: GTP-KRAS-G12D:SOS1 (Homo sapiens (Human), UniProt P01116, G12D)
# Experiment: GTP-KRAS-G12D:SOS1 binding inhibition
# Method: The IC50 of the compounds was fitted using a nonlinear regression equation with GraphPad Prism 8. The results are presented in Table 2: • Negative control: DMSO • Positive control: 100 μM BI-2852
# The following nonlinear fitting formula was used to obtain the IC50 (half-maximal inhibitory concentration) of the compounds:
# [formula] • X: logarithm of the compound concentration • Y: 665/615 Ratio
# GTP-KRAS-G12D:SOS1, sequence (P01116-2 other isoform, or with tags, fused parts or gaps G12D): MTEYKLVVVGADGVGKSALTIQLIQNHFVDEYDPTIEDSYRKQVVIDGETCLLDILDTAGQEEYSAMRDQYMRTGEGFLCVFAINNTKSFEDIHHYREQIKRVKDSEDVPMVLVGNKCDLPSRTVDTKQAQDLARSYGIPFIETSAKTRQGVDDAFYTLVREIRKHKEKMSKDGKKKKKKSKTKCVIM
row,SMILES,IC50 [nM]
1,"COCCc1cccc2cc(O)cc(-c3c(F)c4c5c(nc(OC[C@@]67CCCN6C[C@H](F)C7)nc5c3F)N3CC5CCC(N5)C3CO4)c12 (single isomer, unassigned) [Compound 12b, 4-((2S or 2R,5aS,6S,9R)-1,3-difluoro-13-(((2R,7aS)-2-fluorotetrahydro-1H-pyrrolizin-7a(5H)-yl)methoxy)-5a,6,7,8,9,10-hexahydro-5H-6,9-epiminoazepino[2′,1′:3,4][1,4]oxazepino[5,6,7-de]quinazolin-2-yl)-5-(2-methoxyethyl) naphthalen-2-ol dihydrochloride]",21.3
2,"CCc1cccc2cc(O)cc(-c3c(F)c4c5c(nc(OC[C@@]67CCCN6C[C@H](F)C7)nc5c3F)N3CC5CCC(N5)C3CO4)c12 (single isomer, unassigned) [Compound 5b, (R or S)-4-((5aS,6S,9R)-1,3-difluoro-13-(((2R,7aS)-2-fluorotetrahydro-1H-pyrrolizin-7a(5H)-yl)methoxy)-5a,6,7,8,9,10-hexahydro-5H-6,9-epiminoazepino[2′,1′:3,4][1,4]oxazepino[5,6,7-de]quinazolin-2-yl)-5-ethylnaphthalen-2-ol dihydrochloride]",2800
3,"Oc1ccc(-c2cc[nH]n2)c(-c2c(F)c3c4c(nc(OC[C@@]56CCCN5C[C@H](F)C6)nc4c2F)N2CC4CCC(N4)C2CO3)c1 (stereo partly drawn) [Compound 24, 3-((5aS,6S,9R)-1,3-Difluoro-13-(((2R,7aS)-2-fluorotetrahydro-1H-pyrrolizin-7a(5H)-yl)methoxy)-5a,6,7,8,9,10-hexahydro-5H-6,9-epiminoazepino[2′,1′:3,4][1,4]oxazepino[5,6,7-de]quinazolin-2-yl)-4-(1H-pyrazol-3-yl) phenol dihydrochloride]",2070
4,"O=C1CC2(CCc3c(nc(OC[C@@]45CCCN4C[C@H](F)C5)nc3N3C[C@H]4CC[C@@H](C3)N4)C2)c2cc(O)cc(Cl)c21 (single isomer, unassigned) [Compound 6a, (S or R)-4′-((1R,5S)-3,8-Diazabicyclo[3.2.1]octan-3-yl)-4-chloro-2′-(((2R,7aS)-2-fluorotetrahydro-1H-pyrrolizin-7a(5H)-yl)methoxy)-6-hydroxy-5′,8′-dihydro-6′H-spiro[indene-1,7′-quinazolin]-3 (2H)-one dihydrochloride]",314
5,"CCc1cccc2cc(O)cc(-c3c(F)c4c5c(nc(OC[C@@]67C[C@H](O)CN6C[C@H](F)C7)nc5c3F)N3CC5CCC(N5)C3CO4)c12 (single isomer, unassigned) [Compound 15b, (2S,6R,7aS)-7a-((((2S or 2R,5aS,6S,9R)-2-(8-ethyl-3-hydroxynaphthalen-1-yl)-1,3-difluoro-5a,6,7,8,9,10-hexahydro-5H-6,9-epiminoazepino[2′,1′:3,4][1,4]oxazepino[5,6,7-de]quinazolin-13-yl)oxy)methyl)-6-fluorohexahydro-1H-pyrrolizin-2-ol dihydrochloride]",6.54
6,"Nc1cc2ccccc2c(-c2c(F)c3c4c(nc(OC[C@@]56CCCN5C[C@H](F)C6)nc4c2F)N2CC4CCC(N4)C2CO3)n1 (stereo partly drawn) [Compound 22, 1-((5aS,6S,9R)-1,3-Difluoro-13-(((2R,7aS)-2-fluorotetrahydro-1H-pyrrolizin-7a(5H)-yl)methoxy)-5a,6,7,8,9,10-hexahydro-5H-6,9-epiminoazepino[2′,1′:3,4][1,4]oxazepino[5,6,7-de]quinazolin-2-yl) isoquinolin-3-amine]",13.4
